In patent publication US8563542B2 (Cyclacel Limited, priority 2007, dated 2013):
Read-outs that look alike come from different tables or passages of the source.

Tests used:
[1] = target: T1, AA (Homo sapiens, UniProt O14965); assay: AA IC50 (Table 1; no method given); format: biochemical
T1 sequence (O14965 1-403): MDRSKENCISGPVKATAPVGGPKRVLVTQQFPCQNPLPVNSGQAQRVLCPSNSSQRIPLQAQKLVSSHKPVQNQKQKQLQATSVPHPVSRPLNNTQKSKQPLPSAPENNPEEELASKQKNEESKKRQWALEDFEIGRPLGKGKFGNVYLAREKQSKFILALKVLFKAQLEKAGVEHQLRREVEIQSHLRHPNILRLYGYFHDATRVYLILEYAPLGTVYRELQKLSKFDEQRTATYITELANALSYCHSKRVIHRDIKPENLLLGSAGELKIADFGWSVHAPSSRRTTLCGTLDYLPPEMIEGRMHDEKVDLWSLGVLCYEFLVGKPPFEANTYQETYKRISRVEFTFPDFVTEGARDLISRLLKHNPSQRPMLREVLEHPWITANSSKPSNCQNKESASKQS

[2] = target: PLK1 (Homo sapiens, UniProt P53350); assay: PLK1 protein kinase assay (CDC25C phosphorylation, [γ-32P]-ATP); format: biochemical; conditions: read-out: PLK1 IC50
PLK1, sequence (P53350 whole entry): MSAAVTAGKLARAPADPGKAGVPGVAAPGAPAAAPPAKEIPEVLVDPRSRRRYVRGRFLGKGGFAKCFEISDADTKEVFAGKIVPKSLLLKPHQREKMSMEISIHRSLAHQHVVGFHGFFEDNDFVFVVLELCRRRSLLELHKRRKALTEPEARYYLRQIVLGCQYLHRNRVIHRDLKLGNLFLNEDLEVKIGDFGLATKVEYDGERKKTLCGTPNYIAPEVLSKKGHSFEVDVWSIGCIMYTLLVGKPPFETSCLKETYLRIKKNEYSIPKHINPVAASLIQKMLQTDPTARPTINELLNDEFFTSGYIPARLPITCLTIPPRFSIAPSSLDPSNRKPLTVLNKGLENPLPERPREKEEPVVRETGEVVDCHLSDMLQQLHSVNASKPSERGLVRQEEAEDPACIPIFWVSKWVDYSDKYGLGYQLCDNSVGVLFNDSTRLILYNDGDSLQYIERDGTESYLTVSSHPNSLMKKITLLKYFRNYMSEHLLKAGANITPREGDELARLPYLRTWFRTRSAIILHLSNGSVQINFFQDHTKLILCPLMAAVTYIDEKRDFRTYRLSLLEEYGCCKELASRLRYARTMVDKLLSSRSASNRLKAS

[3] = Table 2, AurA IC50, class symbols, read-out: AurA IC50
[4] = Table 2, PLK1 IC50, class symbols

SMILES: COc1cc(C(=O)O)ccc1Nc1ncc2c(n1)N(C1CCCC1)CCC(=O)N2C [compound 1, 4-(9-Cyclopentyl-5-methyl-6-oxo-6,7,8,9-tetrahydro-5H-pyrimido[4,5-b][1,4]diazepin-2-ylamino)-3-methoxy-benzoic acid]
- IC50 ([1]; Table 1, read-out: AA IC50): 1000 to 10000 nM
- IC50 ([2]; Table 1): < 1000 nM

SMILES: CC1CC(=O)Nc2cnc(Nc3ccc(C(=O)O)cc3)nc2N1C1CCCC1 (stereo not shown) [compound 7]
- IC50 ([1]; Table 1, read-out: AA IC50): 1000 to 10000 nM
- IC50 ([2]; Table 1): < 1000 nM

SMILES: CC1CC(=O)N(C)c2cnc(Nc3ccc(C(=O)O)cc3)nc2N1C1CCCC1 (stereo not shown) [compound 8, 4-(9-Cyclopentyl-5,8-dimethyl-6-oxo-6,7,8,9-tetrahydro-5H-pyrimido[4,5-b][1,4]diazepin-2-ylamino)-benzoic acid]
- IC50 ([1]; Table 1, read-out: AA IC50): < 100 nM
- IC50 ([2]; Table 1): < 1000 nM

SMILES: CN1C(=O)CCN(c2ccccc2)c2nc(Nc3ccc(C(=O)O)cc3)ncc21 [compound 15, 4-(5-Methyl-6-oxo-9-phenyl-6,7,8,9-tetrahydro-5H-pyrimido[4,5-b][1,4]diazepin-2-ylamino)-benzoic acid]
- IC50 ([1]; Table 1, read-out: AA IC50): 100 to 1000 nM
- IC50 ([2]; Table 1): < 10000 nM

SMILES: CC1CN(C2CCCC2)c2nc(Nc3ccc(C(=O)NC4CCN(C)CC4)cc3)ncc2NC1=O (stereo not shown) [compound 18, 4-(9-Cyclopentyl-7-methyl-6-oxo-6,7,8,9-tetrahydro-5H-pyrimido[4,5-b][1,4]diazepin-2-ylamino)-N-(1-methyl-piperidin-4-yl)-benzamide]
- IC50 ([1]; Table 1, read-out: AA IC50): 1000 to 10000 nM
- IC50 ([2]; Table 1): < 10000 nM

SMILES: CC1CC(=O)N(C)c2cnc(Nc3ccc(C(=O)NC4CCN(C)CC4)cc3)nc2N1C1CCCC1 (stereo not shown) [compound 37, 4-(9-Cyclopentyl-5,8-dimethyl-6-oxo-6,7,8,9-tetrahydro-5H-pyrimido[4,5-b][1,4]diazepin-2-ylamino)-N-(1-methyl-piperidin-4-yl)-benzamide]
- IC50 ([1]; Table 1, read-out: AA IC50): 100 to 1000 nM
- IC50 ([2]; Table 1): < 1000 nM

SMILES: CCC1CN(C2CCCC2)c2nc(Nc3ccc(C(=O)O)cc3)ncc2N(C)C1=O (stereo not shown) [compound 41, 4-(9-Cyclopentyl-7-ethyl-5-methyl-6-oxo-6,7,8,9-tetrahydro-5H-pyrimido[4,5-b][1,4]diazepin-2-ylamino)-benzoic acid]
- IC50 [1, 3]: < 100 nM
- IC50 [2, 4]: < 1000 nM

SMILES: COc1cc(C(=O)NC2CCN(C)CC2)ccc1Nc1ncc2c(n1)N(C(C)(C)C)CCC(=O)N2C [compound 42, 4-(9-tert-Butyl-5-methyl-6-oxo-6,7,8,9-tetrahydro-5H-pyrimido[4,5-b][1,4]diazepin-2-ylamino)-3-methoxy-N-(1-methyl-piperidin-4-yl)-benzamide]
- IC50 [1, 3]: < 1000 nM
- IC50 [2, 4]: < 10000 nM

SMILES: CN1C(=O)CCN(C2CCCC2)c2nc(Nc3ccc4c(c3)CS(=O)(=O)C4)ncc21 [compound 46, 9-Cyclopentyl-2-(2,2-dioxo-2,3-dihydro-1H-2lambda*6*-benzo[c]thiophen-5-ylamino)-5-methyl-5,7,8,9-tetrahydro-pyrimido[4,5-b][1,4]diazepin-6-one]
- IC50 [1, 3]: < 100 nM
- IC50 [2, 4]: < 10000 nM

SMILES: CN1C(=O)CCN(C2CCCC2)c2nc(Nc3ccc(S(=O)(=O)N4CCOCC4)cc3)ncc21 [compound 47, 9-Cyclopentyl-5-methyl-2-[4-(morpholine-4-sulfonyl)-phenylamino]-5,7,8,9-tetrahydro-pyrimido[4,5-b][1,4]diazepin-6-one]
- IC50 [1, 3]: < 100 nM
- IC50 [2, 4]: < 10000 nM

SMILES: COc1cccc(N2CCC(=O)N(C)c3cnc(Nc4ccc(C(=O)O)cc4)nc32)c1 [compound 49, 4-[9-(3-Methoxy-phenyl)-5-methyl-6-oxo-6,7,8,9-tetrahydro-5H-pyrimido[4,5-b][1,4]diazepin-2-ylamino]-benzoic acid]
- IC50 [1, 3]: < 10000 nM
- IC50 [2, 4]: < 10000 nM

SMILES: CN1C(=O)CCN(c2ccccc2F)c2nc(Nc3ccc(C(=O)O)cc3)ncc21 [compound 50, 4-[9-(2-Fluoro-phenyl)-5-methyl-6-oxo-6,7,8,9-tetrahydro-5H-pyrimido[4,5-b][1,4]diazepin-2-ylamino]-benzoic acid]
- IC50 [1, 3]: < 100 nM
- IC50 [2, 4]: < 10000 nM

SMILES: CN1C(=O)CCN(C2CCCC2)c2nc(Nc3ccc(N4CCOCC4)cc3)ncc21 [compound 51, 9-Cyclopentyl-5-methyl-2-(4-morpholin-4-yl-phenylamino)-5,7,8,9-tetrahydro-pyrimido[4,5-b][1,4]diazepin-6-one]
- IC50 [1, 3]: < 1000 nM
- IC50 [2, 4]: < 1000 nM

SMILES: CN1C(=O)CCN(C2CCCC2)c2nc(Nc3cccc(S(N)(=O)=O)c3)ncc21 [compound 53, 3-(9-Cyclopentyl-5-methyl-6-oxo-6,7,8,9-tetrahydro-5H-pyrimido[4,5-b][1,4]diazepin-2-ylamino)-benzenesulfonamide]
- IC50 [1, 3]: < 1000 nM
- IC50 [2, 4]: < 1000 nM

SMILES: CN1C(=O)CCN(C2CCCC2)c2nc(Nc3ccc(C(=O)O)cc3)ncc21 [compound 54, 4-(9-Cyclopentyl-5-methyl-6-oxo-6,7,8,9-tetrahydro-5H-pyrimido[4,5-b][1,4]diazepin-2-ylamino)-benzoic acid]
- IC50 [1, 3]: < 100 nM
- IC50 [2, 4]: < 100 nM

SMILES: CN1C(=O)CCN(C2CCCC2)c2nc(Nc3ccc(S(C)(=O)=O)cc3)ncc21 [compound 55, 9-Cyclopentyl-2-(4-methanesulfonyl-phenylamino)-5-methyl-5,7,8,9-tetrahydro-pyrimido[4,5-b][1,4]diazepin-6-one]
- IC50 [1, 3]: < 100 nM
- IC50 [2, 4]: < 10000 nM

SMILES: CN1C(=O)CCN(C2CCCC2)c2nc(Nc3cccc(C(=O)O)c3)ncc21 [compound 56, 3-(9-Cyclopentyl-5-methyl-6-oxo-6,7,8,9-tetrahydro-5H-pyrimido[4,5-b][1,4]diazepin-2-ylamino)-benzoic acid]
- IC50 [1, 3]: < 1000 nM
- IC50 [2, 4]: < 1000 nM

SMILES: CN1CCC(NC(=O)c2cccc(Nc3ncc4c(n3)N(C3CCCC3)CCC(=O)N4C)c2)CC1 [compound 57, 3-(9-Cyclopentyl-5-methyl-6-oxo-6,7,8,9-tetrahydro-5H-pyrimido[4,5-b][1,4]diazepin-2-ylamino)-N-(1-methyl-piperidin-4-yl)-benzamide]
- IC50 [1, 3]: < 1000 nM
- IC50 [2, 4]: < 10000 nM

SMILES: COc1cc(Nc2ncc3c(n2)N(C2CCCC2)CCC(=O)N3C)ccc1C(=O)NC1CCN(C)CC1 [compound 58, 4-(9-Cyclopentyl-5-methyl-6-oxo-6,7,8,9-tetrahydro-5H-pyrimido[4,5-b][1,4]diazepin-2-ylamino)-2-methoxy-N-(1-methyl-piperidin-4-yl)-benzamide]
- IC50 [1, 3]: < 100 nM
- IC50 [2, 4]: < 1000 nM

SMILES: CN1CCC(NS(=O)(=O)c2ccc(Nc3ncc4c(n3)N(C3CCCC3)CCC(=O)N4C)cc2)CC1 [compound 61, 4-(9-Cyclopentyl-5-methyl-6-oxo-6,7,8,9-tetrahydro-5H-pyrimido[4,5-b][1,4]diazepin-2-ylamino)-N-(1-methyl-piperidin-4-yl)-benzenesulfonamide]
- IC50 [1, 3]: < 1000 nM
- IC50 [2, 4]: < 10000 nM

SMILES: CN1C(=O)CCN(C2CCCC2)c2nc(Nc3ccc(S(N)(=O)=O)cc3)ncc21 [compound 63, 4-(9-Cyclopentyl-5-methyl-6-oxo-6,7,8,9-tetrahydro-5H-pyrimido[4,5-b][1,4]diazepin-2-ylamino)-benzenesulfonamide]
- IC50 [1, 3]: < 100 nM
- IC50 [2, 4]: < 10000 nM

SMILES: CN1C(=O)CCN(C2CCCC2)c2nc(Nc3ccccc3)ncc21 [compound 70, 9-Cyclopentyl-5-methyl-2-phenylamino-5,7,8,9-tetrahydro-pyrimido[4,5-b][1,4]diazepin-6-one]
- IC50 [1, 3]: < 1000 nM
- IC50 [2, 4]: < 10000 nM

SMILES: CCC1CN(C2CCCC2)c2nc(Nc3ccc4c(c3)CS(=O)(=O)C4)ncc2N(C)C1=O (stereo not shown) [compound 74, 9-Cyclopentyl-2-(2,2-dioxo-2,3-dihydro-1H-2lambda*6*-benzo[c]thiophen-5-ylamino)-7-ethyl-5-methyl-5,7,8,9-tetrahydro-pyrimido[4,5-b][1,4]diazepin-6-one]
- IC50 [1, 3]: < 100 nM
- IC50 [2, 4]: < 1000 nM

SMILES: CN1C(=O)CCN(c2c(F)cccc2F)c2nc(Nc3ccc4c(c3)CS(=O)(=O)C4)ncc21 [compound 339, 9-(2,6-Difluoro-phenyl)-2-(2,2-dioxo-2,3-dihydro-1H-2lambda*6*-benzo[c]thiophen-5-ylamino)-5-methyl-5,7,8,9-tetrahydro-pyrimido[4,5-b][1,4]diazepin-6-one]
- IC50 [1, 3]: < 100 nM

SMILES: CCN1C(=O)CCN(c2c(F)cccc2F)c2nc(Nc3ccc4c(c3)CS(=O)(=O)C4)ncc21 [compound 340, 9-(2,6-Difluoro-phenyl)-2-(2,2-dioxo-2,3-dihydro-1H-2lambda*6*-benzo[c]thiophen-5-ylamino)-5-ethyl-5,7,8,9-tetrahydro-pyrimido[4,5-b][1,4]diazepin-6-one]
- IC50 [1, 3]: < 1000 nM

SMILES: Cc1cc(Nc2ncc3c(n2)N(c2ccc(C(C)(C)C)cc2)CCC(=O)N3C)ccc1NC(=O)C1CC1 [compound 342]
- IC50 [1, 3]: < 10000 nM

SMILES: COc1ccc(N2CCC(=O)N(C)c3cnc(Nc4ccc(S(=O)(=O)NC(C)=O)cc4)nc32)cc1 [compound 350, N-Acetyl-4-[9-(4-methoxy-phenyl)-5-methyl-6-oxo-6,7,8,9-tetrahydro-5H-pyrimido[4,5-b][1,4]diazepin-2-ylamino]-benzenesulfonamide]
- IC50 [1, 3]: < 1000 nM

SMILES: CC(=O)NS(=O)(=O)c1ccc(Nc2ncc3c(n2)N(c2c(F)cccc2F)CCC(=O)N3C)cc1 [compound 351, N-Acetyl-4-[9-(2,6-difluoro-phenyl)-5-methyl-6-oxo-6,7,8,9-tetrahydro-5H-pyrimido[4,5-b][1,4]diazepin-2-ylamino]-benzenesulfonamide]
- IC50 [1, 3]: < 100 nM

SMILES: CC(=O)NS(=O)(=O)c1ccc(Nc2ncc3c(n2)N(c2ccc(N4CCOCC4)cc2)CCC(=O)N3C)cc1 [compound 352]
- IC50 [1, 3]: < 1000 nM
